The target in one test is PRMT5 (Homo sapiens, UniProt O14744). The experiment in a line: PRMT5 IC50 (Table 2; no method described). The note with it: read-out: PRMT5_ IC50. The format is biochemical.
Test [1] deals with asymmetric di-methyl PABP1 in RKO cells. As to the kind of experiment: In Cell Western (ICW) for asymmetric di-methyl PABP1 and DNA content in RKO cells. The format is cell-based. To be noted: Homo sapiens, RKO, In Cell Western. The essentials: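 RKO cells treated with compound for 48 h at 37 °C, then fixed, methanol-permeabilized and stained for asymmetric di-methyl PABP1 (800 nm) with DRAQ5 DNA stain (700 nm). Signal ratio normalized to DMSO and 20 μM reference-compound controls. IC50 from nine 3-fold dilutions in triplicate.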

This note sets out measurements from patent publication US20170280720A1, “ARGININE […] INHIBITORS AND USES THEREOF” (EPIZYME, INC., priority 2014, published 2017).

The structures appear in SMILES notation.

Chain of PRMT5 (O14744 whole entry, species assumed): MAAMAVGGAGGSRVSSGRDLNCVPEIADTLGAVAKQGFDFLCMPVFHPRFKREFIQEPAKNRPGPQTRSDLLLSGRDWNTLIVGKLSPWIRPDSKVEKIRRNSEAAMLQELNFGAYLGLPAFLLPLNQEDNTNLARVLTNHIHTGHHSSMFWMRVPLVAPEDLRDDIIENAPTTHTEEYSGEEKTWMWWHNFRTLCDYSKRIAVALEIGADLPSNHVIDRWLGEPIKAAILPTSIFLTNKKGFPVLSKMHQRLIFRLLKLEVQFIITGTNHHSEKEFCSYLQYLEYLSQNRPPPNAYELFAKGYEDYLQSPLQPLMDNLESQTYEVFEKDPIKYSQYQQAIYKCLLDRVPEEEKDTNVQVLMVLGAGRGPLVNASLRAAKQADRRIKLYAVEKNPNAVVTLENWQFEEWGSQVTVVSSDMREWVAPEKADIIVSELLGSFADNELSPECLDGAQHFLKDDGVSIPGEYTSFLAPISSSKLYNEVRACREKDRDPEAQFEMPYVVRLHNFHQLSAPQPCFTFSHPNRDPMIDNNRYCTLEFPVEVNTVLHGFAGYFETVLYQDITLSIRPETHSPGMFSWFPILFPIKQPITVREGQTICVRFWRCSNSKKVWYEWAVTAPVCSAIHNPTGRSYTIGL
Chain of PRMT5 (Q9BQA1 whole entry partner, species assumed): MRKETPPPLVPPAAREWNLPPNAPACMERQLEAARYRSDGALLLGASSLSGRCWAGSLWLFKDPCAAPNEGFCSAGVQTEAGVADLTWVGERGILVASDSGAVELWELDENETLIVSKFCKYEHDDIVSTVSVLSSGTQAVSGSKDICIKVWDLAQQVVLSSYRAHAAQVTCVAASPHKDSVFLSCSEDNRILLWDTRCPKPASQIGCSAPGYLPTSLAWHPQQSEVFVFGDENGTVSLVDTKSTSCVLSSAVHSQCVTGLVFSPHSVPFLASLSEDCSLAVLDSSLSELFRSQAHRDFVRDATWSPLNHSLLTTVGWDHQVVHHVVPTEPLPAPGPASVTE

Consider `COc1cccc(-n2cnc3ccc(-c4ccc(CNCCN)cc4)cc32)c1` [Compound 110], for which the IC50 at PRMT5 came out at 0.273 µM.
In the case of `CC(C)n1ncc2c(NC(=O)OCc3ccccc3)cc(-c3cccc(CN(C)CCN)c3)nc21` [Compound 84], the results for the IC50 (in test [1]; at PRMT5) were 13.3 µM and 27.7 µM, respectively.
Take `CNCCN(C)Cc1cccc(-c2nc(NC3CC3)c3cnn(C4CC4)c3n2)c1` [Compound 114]: in test [1], the IC50 amounted to 20 µM.
As to `CCOC(=O)c1cc(-c2cccc(CN(C)CCNC)c2)nc2c1cnn2C(C)C` [Compound 78], the 50% inhibitory concentration (IC50) in test [1] stood at 13 µM.
For the compound `CN(CCN)Cc1cccc(-c2nc(NCc3cn4ccsc4n3)c3cnn(C4CC4)c3n2)c1` [Compound 5], in test [1], 20 µM corresponded to half-maximal inhibition (IC50).
Regarding `CCNc1cc(-c2cccc(CN(C)CCNC)c2)nc2c1cnn2C(C)C` [Compound 72], in test [1], the IC50 was determined as 5.36 µM.
Still for that read-out and setting: the result for `CNCCN(C)Cc1cccc(-c2cc(N3CCC3)c3cnn(C(C)C)c3n2)c1` [Compound 79] reads 20 µM; that for `CNCCN(C)Cc1cccc(-c2cc(NC)c3cnn(C(C)C)c3n2)c1` [Compound 121], 7.45 µM; that for `CNCCN(C)Cc1cccc(-c2cc(C#N)c3cnn(C(C)C)c3n2)c1` [Compound 74], 20 µM.
Turning to `CNCCN(C)Cc1cccc(-c2cc(N(C)C3CC3)c3cnn(C(C)C)c3n2)c1` [Compound 95], the IC50 in test [1] turned out to be 6.8 µM; at PRMT5, 200 µM.
Regarding `CNCCN(C)Cc1cccc(-c2cc(N3CCCC(C#N)C3)c3cnn(C(C)C)c3n2)c1` (stereo not shown) [Compound 55], in test [1], inhibition was half-maximal at 4.81 µM (IC50).
The same measure, in the same setting: next, `CNCCN(C)Cc1cccc(-c2cc(C(=O)N3CCCCC3)c3cnn(C(C)C)c3n2)c1` [Compound 56]: 16.8 µM; `CC(C)n1ncc2c(C(=O)NCC3CCOCC3)cc(-c3cccc(CN(C)CCN)c3)nc21` [Compound 108]: 1.13 µM.
On to `CNCCN(C)Cc1cccc(-c2nc(N3CCOCC3)c3cnn(C(C)C)c3n2)c1` [Compound 99], for which, in test [1], 1.54 µM corresponded to half-maximal inhibition (IC50).
Take `CNCCN(C)Cc1cccc(-c2cc(NC(=O)NC(C)C)c3cnn(C(C)C)c3n2)c1` [Compound 85]: half-maximal inhibition in test [1] (IC50) required 2.58 µM.
As to `CC(C)n1ncc2c(NC3CCOCC3)cc(-c3cccc(CN(C)CCN)c3)nc21` [Compound 101], in test [1], it took 6.31 µM to reach half-maximal inhibition (IC50).
Consider `Cc1cccc(-n2cnc3ccc(-c4ccc(CNCCN)cc4)cc32)c1` [Compound 106], for which the 50% inhibitory concentration (IC50) at PRMT5 came to 0.178 µM.
In the case of `NCCNCc1ccc(-c2ccc3ncn(CC4CCNCC4)c3c2)cc1` [Compound 70], the IC50 at PRMT5 is 0.421 µM.
For `CNCCN(C)Cc1cccc(-c2cc(OC)c3cnn(C(C)C)c3n2)c1` [Compound 124], in test [1], the 50% inhibitory concentration (IC50) is 17.8 µM.
Take `CCOc1cc(-c2cccc(CN(C)CCNC)c2)nc2c1cnn2C(C)C` [Compound 53]: the IC50 in test [1] came out at 3.47 µM.
In test [1], `CNCCN(C)Cc1cccc(-c2cc(OC3CCOC3)c3cnn(C(C)C)c3n2)c1` (stereo not shown) [Compound 102] yielded an IC50 of 10.9 µM.
On to `CN(CCN)Cc1cccc(-c2nc(NCc3ccncc3)c3cnn(C4CC4)c3n2)c1` [Compound 66], for which the midpoint of inhibition in test [1], the IC50, lay at 20 µM.
In test [1], `CNCCN(C)Cc1cccc(-c2nc(NCc3cn4ccsc4n3)c3cnn(C4CC4)c3n2)c1` [Compound 6] had an IC50 of 0.39 µM.
For `Cc1ccccc1Cn1cnc2ccc(-c3ccc(CNCCN)cc3)cc21` [Compound 82], the IC50 on PRMT5 came to 0.236 µM.
`CNCCN(C)Cc1cccc(-c2nc(NCc3cnn(C)c3C)c3cnn(C4CC4)c3n2)c1` [Compound 57] displayed an IC50 in test [1] of 20 µM.
On to `COc1ccccc1Cn1cnc2ccc(-c3ccc(CNCCN)cc3)cc21` [Compound 80], for which the IC50 at PRMT5 was found to be 0.161 µM.
As for `CN(CCN)Cc1cccc(-c2nc(NC3CC3)c3cnn(C4CC4)c3n2)c1` [Compound 96], the IC50 in test [1] came out at 12.5 µM.
Turning to `Cc1ccc(Cn2cnc3ccc(-c4ccc(CNCCN)cc4)cc32)cc1` [Compound 97], on PRMT5, the IC50 was determined as 0.0659 µM.
`CC(C)NC(=O)Nc1cc(-c2cccc(CN(C)CCN)c2)nc2c1cnn2C(C)C` [Compound 86] gave an IC50 in test [1] of 3.46 µM.
The same measure, in the same setting: next, `CNCCN(C)Cc1cccc(-c2cc(C(=O)NCc3ccccn3)c3cnn(C(C)C)c3n2)c1` [Compound 98]: 1.6 µM; `CNCCN(C)Cc1cccc(-c2cc(-c3cnn(C)c3)c3cnn(C(C)C)c3n2)c1` [Compound 49, N1-(3-(1-isopropyl-4-(1-methyl-1H-pyrazol-4-yl)-1H-pyrazolo[3,4-b]pyridin-6-yl)benzyl)-N1,N2-dimethylethane-1,2-diamine]: 1.29 µM; `CC(C)n1ncc2c(NS(=O)(=O)N(C)C)cc(-c3cccc(CN(C)CCN)c3)nc21` [Compound 107]: 11.8 µM.
On the same count and under the same terms, the result for `CNCCN(C)Cc1cccc(-c2cc(C(=O)NC3CCOCC3)c3cnn(C4CC4)c3n2)c1` [Compound 87] reads 2.17 µM.
Consider `Cc1c(C(=O)NCc2ccccc2)cc(-c2ccc(CN(C)CCN)cc2)c2cn[nH]c12` [Compound 7], for which the concentration for half-maximal inhibition (IC50) at PRMT5 is 22.5 µM.
In turn, `CC(C)n1ncc2c(NC(=O)N(C)C)cc(-c3cccc(CN(C)CCN)c3)nc21` [Compound 116] came in with an IC50 in test [1] of 2.62 µM.
Same read-out and setting: the result for `CNCCN(C)Cc1cccc(-c2cc(N3CCC(C#N)CC3)c3cnn(C(C)C)c3n2)c1` [Compound 93] reads 1.65 µM.
`CNCCN(C)Cc1cccc(-c2ccc3cnn(C(C)C)c3n2)c1` [Compound 73]: the IC50 in test [1] came out at 20 µM; at PRMT5 it was 50 µM.
For the compound `NCCNCc1ccc(-c2ccc3ncn(Cc4ccc(C(=O)N5CCCC5)cc4)c3c2)cc1` [Compound 104], at PRMT5, the IC50 came out at 0.1 µM.
Turning to `CNCCN(C)Cc1cccc(-c2cc(C(=O)NCC3CCOCC3)c3cnn(C(C)C)c3n2)c1` [Compound 105], in test [1], the IC50 worked out at 1.36 µM.
As for `CC(C)n1ncc2c(C(=O)NCc3ccccc3Cl)cc(-c3cccc(CN(C)CCN)c3)nc21` [Compound 54], in test [1], it took 20 µM to reach half-maximal inhibition (IC50).
`CC(C)n1cc2c(Cl)cc(-c3cccc(CN(C)CCN)c3)nc2n1` [Compound 59]: in test [1], the IC50 was determined as 15.5 µM.
Take `CNCCN(C)Cc1cccc(-c2cc(N3CCC(OC)CC3)c3cnn(C(C)C)c3n2)c1` [Compound 51]: in test [1], the midpoint of inhibition, the IC50, lay at 5.39 µM.
Turning to `COc1ccccc1-c1nc2ccc(-c3ccc(CNCCN)cc3)cc2[nH]1` [Compound 115], the half-maximal inhibitory concentration (IC50) at PRMT5 was 0.343 µM.
Take `COc1cccc(Cn2cnc3ccc(-c4ccc(CN(C)CCN)cc4)cc32)c1` [Compound 8]: the concentration for half-maximal inhibition (IC50) at PRMT5 was determined as 16 µM.
The compound `CNCCN(C)Cc1cccc(-c2cc(NC(=O)N(C)C)c3cnn(C(C)C)c3n2)c1` [Compound 123] had an IC50 in test [1] of 4.78 µM.
The same measure, in the same setting: next, `CNCCN(C)Cc1cccc(-c2nc(N(C)C3CCOCC3)c3cnn(C4CC4)c3n2)c1` [Compound 109, N1-(3-(1-cyclopropyl-4-(methyl(tetrahydro-2H-pyran-4-yl)amino)-1H-pyrazolo[3,4-d]pyrimidin-6-yl)benzyl)-N1,N2-dimethylethane-1,2-diamine]: 10.7 µM.
`COC(=O)Nc1cc(-c2cccc(CN(C)CCN)c2)nc2c1cnn2C(C)C` [Compound 71]: in test [1], the concentration for half-maximal inhibition (IC50) was 11 µM.
Still for that read-out and setting: next, `CN(CCN)Cc1cccc(-c2nc(N(C)C3CCOCC3)c3cnn(C4CC4)c3n2)c1` [Compound 119]: 1.37 µM; `CNCCN(C)Cc1cccc(-c2cc(NC3CCOCC3)c3cnn(C(C)C)c3n2)c1` [Compound 76]: 1.63 µM; `CNCCN(C)Cc1cccc(-c2nc(NCc3ccccn3)c3cnn(C4CC4)c3n2)c1` [Compound 9]: 20 µM.
The same measure, in the same setting: next, `CNCCN(C)Cc1cccc(-c2cc(NC3COC3)c3cnn(C(C)C)c3n2)c1` [Compound 58]: 3.2 µM; `CNCCN(C)Cc1cccc(-c2cc(N(C)C)c3cnn(C(C)C)c3n2)c1` [Compound 103]: 10.3 µM.
In the case of `NCCNCc1ccc(-c2ccc3ncn(CC4CCCNC4)c3c2)cc1` (stereo not shown) [Compound 81], the IC50 on PRMT5 came to 0.321 µM.
Same read-out and setting: the result for `CNCCN(C)Cc1cccc(-c2ccc3cnn(C(C)C)c3c2)c1` [Compound 100] reads 50 µM.
In turn, `CCS(=O)(=O)Nc1cc(-c2cccc(CN(C)CCN)c2)nc2c1cnn2C(C)C` [Compound 111] displayed a half-maximal inhibitory concentration (IC50) in test [1] of 11.9 µM.
The compound `CC(C)n1ncc2c(N3CCOCC3)cc(-c3cccc(CN(C)CCN)c3)nc21` [Compound 61, N1-(3-(1-isopropyl-4-morpholino-1H-pyrazolo[3,4-b]pyridin-6-yl)benzyl)-N1-methylethane-1,2-diamine] gave an IC50 in test [1] of 5.66 µM.
With `CNCCN(C)Cc1cccc(-c2cc(C(=O)NCc3cc(C)nn3C)c3cnn(C(C)C)c3n2)c1` [Compound 120], the half-maximal inhibitory concentration (IC50) in test [1] was 1.53 µM.
On to `COc1cccc(CCn2cnc3ccc(-c4ccc(CNCCN)cc4)cc32)c1` [Compound 94], for which, at PRMT5, the IC50 was determined as 0.0888 µM.

One may read the IC50 as the concentration that inhibits the measured activity by half.
